Consider 9 compounds from patent publication US10138255B2, “Piperazine derivatives as HIV protease inhibitors” (Merck Sharp & Dohme Corp., priority 2014, dated 2018).

The assay concerns HIV-1 (H9IIIB strain). Briefly: Cell-Based HIV Infection Assay Using a Reporter (MT4-GFP cells). To be noted: Human immunodeficiency virus 1, inflection point (IP) of viral growth inhibition; MT4-GFP cells infected with HIV-1 H9IIIB; 50% normal human serum; mean of at least two independent experiments; read-out: Cell Based IP (50% NHS). The gist of the method: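 MT4-GFP cells (HIV LTR-driven GFP) bulk-infected with HIV-1 H9IIIB at low MOI for 24 h, washed, then exposed to compounds in RPMI plus 50% normal human serum, 0.4% DMSO. Infected cells counted at 24 and 48 h; R0 = 48 h/24 h ratio, inhibition normalised to DMSO and triple-drug control; IP from 4-parameter fit.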
For the compound `N[C@H](C(=O)N[C@H]1CCCC[C@@H]1CC[C@H]1CN[C@@H]2CCCS(=O)(=O)N1C2)[C@H](c1cncc(C(F)(F)F)c1)c1ccc(Cl)c(F)c1` [Example 150], the EC50 stood at 22 nM. Next, `N[C@H](C(=O)Nc1cccc(F)c1CCC1CNC2CCCS(=O)(=O)N1C2)[C@H](CCC1CCCCO1)c1ccc(Cl)cc1` (stereo partly drawn) [Example 151, (βR)-4-chloro-N-{2-[2-(2,2-dioxido-2-thia-1,7-diazabicyclo[4.3.1]dec-9-yl)ethyl]-3-fluorophenyl}-β-[2-(tetrahydro-2H-pyran-2-yl)ethyl]-L-phenylalaninamide]: 23 nM; `COC(=O)N[C@H](C(=O)Nc1cccc(F)c1CCC1CNC2CCCS(=O)(=O)N1C2)[C@H](CCC1CCCCO1)c1ccc(Cl)cc1` (stereo partly drawn) [Example 153, methyl [(1S,2R)-2-(4-chlorophenyl)-1-({2-[2-(2,2-dioxido-2-thia-1,7-diazabicyclo[4.3.1]dec-9-yl)ethyl]-3-fluorophenyl}carbamoyl)-4-(tetrahydro-2H-pyran-2-yl)butyl]carbamate]: 9.7 nM; `COc1ccc([C@H](c2ccc(Cl)cc2)[C@H](N)C(=O)N[C@H]2CCCC[C@@H]2CC[C@H]2CN[C@@H]3CCCS(=O)(=O)N2C3)cn1` [Example 155, (βS)-4-chloro-N-[(1S,2R)-2-{2-[(6R,9S)-2,2-dioxido-2-thia-1,7-diazabicyclo[4.3.1]dec-9-yl]ethyl}cyclohexyl]-β-(6-methoxypyridin-3-yl)-L-phenylalaninamide]: 600 nM. Next, `N[C@H](C(=O)N[C@H]1CCCC[C@@H]1CC[C@H]1CN[C@@H]2CCCS(=O)(=O)N1C2)[C@@H](c1ccc(F)cc1)C1CCOCC1` [Example 156, (βR)-N-[(1S,2R)-2-{2-[(6R,9S)-2,2-dioxido-2-thia-1,7-diazabicyclo[4.3.1]dec-9-yl]ethyl}cyclohexyl]-4-fluoro-β-(tetrahydro-2H-pyran-4-yl)-L-phenylalaninamide]: 200 nM; `N[C@H](C(=O)N[C@H]1CCC[C@@H]1CC[C@H]1CN[C@@H]2CCCS(=O)(=O)N1C2)[C@@H](c1ccc(Cl)cc1)C1CCS(=O)(=O)CC1` [Example 157, (βR)-4-chloro-β-(1,1-dioxidotetrahydro-2H-thiopyran-4-yl)-N-[(1S,2R)-2-{2-[(6R,9S)-2,2-dioxido-2-thia-1,7-diazabicyclo[4.3.1]dec-9-yl]ethyl}cyclopentyl]-L-phenylalaninamide]: 3400 nM. For `N[C@H](C(=O)Nc1cccc(F)c1CC[C@H]1CNC2CCCS(=O)(=O)N1C2)[C@@H](c1ccc(Cl)cc1)C1CCS(=O)(=O)CC1` (stereo partly drawn) [Example 158, (βR)-4-chloro-β-(1,1-dioxidotetrahydro-2H-thiopyran-4-yl)-N-(2-{2-[(9S)-2,2-dioxido-2-thia-1,7-diazabicyclo[4.3.1]dec-9-yl]ethyl}-3-fluorophenyl)-L-phenylalaninamide] the value was 110 nM. Turning to `COC(=O)N[C@H](C(=O)Nc1cccc(F)c1CC[C@H]1CNC2CCCS(=O)(=O)N1C2)[C@@H](c1ccc(Cl)cc1)C1CCS(=O)(=O)CC1` (stereo partly drawn) [Example 159, methyl {(1S,2R)-2-(4-chlorophenyl)-2-(1,1-dioxidotetrahydro-2H-thiopyran-4-yl)-1-[(2-{2-[(9S)-2,2-dioxido-2-thia-1,7-diazabicyclo[4.3.1]dec-9-yl]ethyl}-3-fluorophenyl)carbamoyl]ethyl}carbamate], the EC50 is 720 nM. Next, `N[C@H](C(=O)N[C@H]1CCCC[C@@H]1CC[C@H]1CN[C@@H]2CCCS(=O)(=O)N1C2)[C@@H](c1ccc(Cl)cc1)c1cc(F)cc(F)c1` [Example 160, (βS)-β-(4-chlorophenyl)-N-[(1S,2R)-2-{2-[(6R,9S)-2,2-dioxido-2-thia-1,7-diazabicyclo[4.3.1]dec-9-yl]ethyl}cyclohexyl]-3,5-difluoro-L-phenylalaninamide]: 22 nM.
